Values joined by “and” are separate entries in the source; they are usually repeats but may differ in a detail not shown here. Identical values can stand only once. Inconclusive results and toxic doses are left out. Cut-off read from the data, not from the text of the source: active = T/C of 150% or more; inactive = T/C below 125%.
Test system: L1210 leukemia ip in BDF1 mice, survival T/C
Assay: NCI In Vivo Anticancer Drug Screen. Data for tumor model L1210 Leukemia (intraperitoneal) in B6D2F1 (BDF1) mice
Details: higher = longer survival
In short: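 Read-out is survival time, reported as the treated-group measurement over the vehicle-control measurement.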

Measured: T/C

Nc1nc(=S)c2[nH]cnc2[nH]1
active: endpoint: mean survival time, dose: 0.43 mg/kg/injection, schedule: Q01DX009 (ip), vehicle: alkali diluted with saline 152 % of control | endpoint: mean survival time, dose: 0.55 mg/kg/injection, schedule: Q01DX015 (ip), vehicle: alkali diluted with saline 151 % of control | endpoint: mean survival time, dose: 0.55 mg/kg/injection, schedule: Q## X015 (ip), vehicle: alkali diluted with saline 151 % of control | endpoint: mean survival time, dose: 0.88 mg/kg/injection, schedule: Q03HX016 (ip), vehicle: alkali diluted with saline 150 % of control | endpoint: mean survival time, dose: 0.88 mg/kg/injection, schedule: Q03HX024 (ip), vehicle: alkali diluted with saline 152 % of control | endpoint: mean survival time, dose: 0.9 mg/kg/injection, schedule: Q01DX015 (ip), vehicle: alkali diluted with saline 152 % of control | endpoint: mean survival time, dose: 1.0 mg/kg/injection, schedule: Q01DX Z (ip), vehicle: carboxymethylcellulose (CMC) 152 % of control | endpoint: mean survival time, dose: 1.2 mg/kg/injection, schedule: Q03HX032 (ip), vehicle: alkali diluted with saline 151 % of control and 152 % of control | endpoint: mean survival time, dose: 1.5 mg/kg/injection, schedule: Q03DX006 (ip), vehicle: saline 154 % of control | endpoint: mean survival time, dose: 2.0 mg/kg/injection, schedule: Q01DX Z (sc), vehicle: saline 153 % of control | endpoint: mean survival time, dose: 3.5 mg/kg/injection, schedule: Q04DX008 (ip), vehicle: alkali diluted with saline 154 % of control | endpoint: mean survival time, dose: 5.3 mg/kg/injection, schedule: Q04DX012 (ip), vehicle: alkali diluted with saline 153 % of control | endpoint: mean survival time, dose: 8.0 mg/kg/injection, schedule: Q04DX008 (ip), vehicle: alkali diluted with saline 154 % of control | endpoint: mean survival time, dose: 8.0 mg/kg/injection, schedule: Q07DX008 (ip), vehicle: alkali diluted with saline 153 % of control | endpoint: mean survival time, dose: 12.0 mg/kg/injection, schedule: Q04DX004 (ip), vehicle: alkali diluted with saline 152 % of control | endpoint: mean survival time, dose: 12.0 mg/kg/injection, schedule: Q04DX006 (ip), vehicle: alkali diluted with saline 151 % of control | endpoint: mean survival time, dose: 13.0 mg/kg/injection, schedule: Q01DX001 (ip), vehicle: carboxymethylcellulose (CMC) 152 % of control | endpoint: mean survival time, dose: 20.0 mg/kg/injection, schedule: Q01DX001 (ip), vehicle: alkali diluted with saline 153 % of control | endpoint: mean survival time, dose: 20.0 mg/kg/injection, schedule: Q04DX003 (ip), vehicle: alkali diluted with saline 154 % of control | endpoint: mean survival time, dose: 24.0 mg/kg/injection, schedule: Q07DX003 (ip), vehicle: saline 152 % of control | endpoint: mean survival time, dose: 27.0 mg/kg/injection, schedule: Q07DX004 (ip), vehicle: alkali diluted with saline 153 % of control | endpoint: mean survival time, dose: 30.0 mg/kg/injection, schedule: Q04DX003 (ip), vehicle: alkali diluted with saline 150 % of control | endpoint: mean survival time, dose: 40.0 mg/kg/injection, schedule: Q07DX004 (ip), vehicle: alkali diluted with saline 152 % of control | endpoint: mean survival time, dose: 60.0 mg/kg/injection, schedule: Q07DX004 (ip), vehicle: alkali diluted with saline 152 % of control | endpoint: mean survival time, dose: 67.0 mg/kg/injection, schedule: Q01DX001 (ip), vehicle: alkali diluted with saline 152 % of control | endpoint: mean survival time, dose: 80.0 mg/kg/injection, schedule: Q01DX001 (ip), vehicle: alkali diluted with saline 150 % of control | endpoint: mean survival time, dose: 100.0 mg/kg/injection, schedule: Q01DX001 (ip), vehicle: alkali diluted with saline 150 % of control | endpoint: median survival time, dose: 4.0 mg/kg/injection, schedule: Q01DX009 (ip), vehicle: other 150 % of control
inactive: endpoint: mean survival time, dose: 0.04 mg/kg/injection, schedule: Q01DX Z (ip), vehicle: carboxymethylcellulose (CMC) 113 % of control | endpoint: mean survival time, dose: 0.06 mg/kg/injection, schedule: Q01DX009 (ip), vehicle: alkali diluted with saline 106 % of control and 108 % of control | endpoint: mean survival time, dose: 0.06 mg/kg/injection, schedule: Q01DX Z (ip), vehicle: carboxymethylcellulose (CMC) 105 % of control | endpoint: mean survival time, dose: 0.06 mg/kg/injection, schedule: Q#A X Z (ip), vehicle: saline 121 % of control | endpoint: mean survival time, dose: 0.09 mg/kg/injection, schedule: Q01DX Z (ip), vehicle: carboxymethylcellulose (CMC) 109 % of control | endpoint: mean survival time, dose: 0.12 mg/kg/injection, schedule: Q01DX009 (ip), vehicle: alkali diluted with saline 111 % of control | endpoint: mean survival time, dose: 0.13 mg/kg/injection, schedule: Q01DX Z (ip), vehicle: saline 111 % of control | endpoint: mean survival time, dose: 0.13 mg/kg/injection, schedule: Q01DX Z (sc), vehicle: saline 107 % of control | endpoint: mean survival time, dose: 0.14 mg/kg/injection, schedule: Q01DX Z (ip), vehicle: carboxymethylcellulose (CMC) 110 % of control | endpoint: mean survival time, dose: 0.22 mg/kg/injection, schedule: Q01DX Z (ip), vehicle: carboxymethylcellulose (CMC) 115 % of control | endpoint: mean survival time, dose: 0.22 mg/kg/injection, schedule: Q07DX003 (ip), vehicle: saline 113 % of control | endpoint: mean survival time, dose: 0.25 mg/kg/injection, schedule: Q01DX Z (sc), vehicle: saline 116 % of control | endpoint: mean survival time, dose: 0.33 mg/kg/injection, schedule: Q01DX015 (ip), vehicle: alkali diluted with saline 102 % of control | endpoint: mean survival time, dose: 0.33 mg/kg/injection, schedule: Q01DX Z (ip), vehicle: carboxymethylcellulose (CMC) 119 % of control | endpoint: mean survival time, dose: 0.37 mg/kg/injection, schedule: Q03DX006 (ip), vehicle: saline 114 % of control | endpoint: mean survival time, dose: 0.44 mg/kg/injection, schedule: Q07DX003 (ip), vehicle: saline 122 % of control | endpoint: mean survival time, dose: 0.5 mg/kg/injection, schedule: Q01DX006 (iv), vehicle: saline 106 % of control | endpoint: mean survival time, dose: 0.5 mg/kg/injection, schedule: Q01DX Z (im), vehicle: saline 109 % of control | endpoint: mean survival time, dose: 0.5 mg/kg/injection, schedule: Q01DX Z (ip), vehicle: carboxymethylcellulose (CMC) 111 % of control | endpoint: mean survival time, dose: 0.5 mg/kg/injection, schedule: Q01DX Z (oral), vehicle: saline 113 % of control | endpoint: mean survival time, dose: 0.75 mg/kg/injection, schedule: Q03DX006 (ip), vehicle: saline 118 % of control | endpoint: mean survival time, dose: 0.88 mg/kg/injection, schedule: Q01DX001 (ip), vehicle: saline 115 % of control | endpoint: mean survival time, dose: 1.0 mg/kg/injection, schedule: Q01DX006 (iv), vehicle: saline 112 % of control | endpoint: mean survival time, dose: 1.0 mg/kg/injection, schedule: Q01DX Z (oral), vehicle: saline 116 % of control | endpoint: mean survival time, dose: 1.75 mg/kg/injection, schedule: Q01DX001 (ip), vehicle: saline 109 % of control | endpoint: mean survival time, dose: 1.8 mg/kg/injection, schedule: Q04DX002 (ip), vehicle: alkali diluted with saline 110 % of control | endpoint: mean survival time, dose: 2.5 mg/kg/injection, schedule: Q01DX010 (ip), vehicle: other 123 % of control | endpoint: mean survival time, dose: 3.5 mg/kg/injection, schedule: Q01DX001 (ip), vehicle: saline 109 % of control and 120 % of control | endpoint: mean survival time, dose: 3.7 mg/kg/injection, schedule: Q01DX Z (ip), vehicle: carboxymethylcellulose (CMC) 110 % of control | endpoint: mean survival time, dose: 4.0 mg/kg/injection, schedule: Q01DX Z (im), vehicle: saline 119 % of control | endpoint: mean survival time, dose: 4.0 mg/kg/injection, schedule: Q01DX Z (ip), vehicle: carboxymethylcellulose (CMC) 93 % of control | endpoint: mean survival time, dose: 4.0 mg/kg/injection, schedule: Q01DX Z (sc), vehicle: saline 106 % of control | endpoint: mean survival time, dose: 5.0 mg/kg/injection, schedule: Q01DX010 (ip), vehicle: other 98 % of control and 104 % of control | endpoint: mean survival time, dose: 6.0 mg/kg/injection, schedule: Q01DX Z (ip), vehicle: carboxymethylcellulose (CMC) 98 % of control | endpoint: mean survival time, dose: 7.0 mg/kg/injection, schedule: Q01DX001 (ip), vehicle: saline 104 % of control and 122 % of control | endpoint: mean survival time, dose: 8.0 mg/kg/injection, schedule: Q01DX Z (ip), vehicle: carboxymethylcellulose (CMC) 106 % of control | endpoint: mean survival time, dose: 8.3 mg/kg/injection, schedule: Q01DX Z (ip), vehicle: carboxymethylcellulose (CMC) 94 % of control | endpoint: mean survival time, dose: 9.0 mg/kg/injection, schedule: Q01DX Z (ip), vehicle: carboxymethylcellulose (CMC) 96 % of control | endpoint: mean survival time, dose: 10.0 mg/kg/injection, schedule: Q01DX010 (ip), vehicle: other 115 % of control | endpoint: mean survival time, dose: 16.0 mg/kg/injection, schedule: Q01DX Z (sc), vehicle: saline 106 % of control | endpoint: mean survival time, dose: 24.0 mg/kg/injection, schedule: Q03DX006 (ip), vehicle: saline 107 % of control | endpoint: mean survival time, dose: 24.0 mg/kg/injection, schedule: Q## X008 (ip), vehicle: alkali diluted with saline 116 % of control | endpoint: mean survival time, dose: 24.0 mg/kg/injection, schedule: Q## X024 (ip), vehicle: alkali diluted with saline 102 % of control | endpoint: mean survival time, dose: 36.0 mg/kg/injection, schedule: Q## X016 (ip), vehicle: alkali diluted with saline 105 % of control | endpoint: mean survival time, dose: 36.0 mg/kg/injection, schedule: Q## X024 (ip), vehicle: alkali diluted with saline 98 % of control | endpoint: mean survival time, dose: 50.0 mg/kg/injection, schedule: Q01DX001 (ip), vehicle: saline 118 % of control | endpoint: mean survival time, dose: 54.0 mg/kg/injection, schedule: Q## X008 (ip), vehicle: alkali diluted with saline 105 % of control | endpoint: mean survival time, dose: 54.0 mg/kg/injection, schedule: Q## X016 (ip), vehicle: alkali diluted with saline 97 % of control | endpoint: mean survival time, dose: 90.0 mg/kg/injection, schedule: Q07DX004 (ip), vehicle: alkali diluted with saline 120 % of control | endpoint: mean survival time, dose: 90.0 mg/kg/injection, schedule: Q07DX006 (ip), vehicle: alkali diluted with saline 118 % of control | endpoint: mean survival time, dose: 96.0 mg/kg/injection, schedule: Q07DX003 (ip), vehicle: saline 103 % of control | endpoint: mean survival time, dose: 100.0 mg/kg/injection, schedule: Q01DX001 (ip), vehicle: saline 112 % of control | endpoint: mean survival time, dose: 106.0 mg/kg/injection, schedule: Q04DX002 (ip), vehicle: alkali diluted with saline 98 % of control | endpoint: mean survival time, dose: 112.0 mg/kg/injection, schedule: Q01DX001 (ip), vehicle: saline 98 % of control | endpoint: mean survival time, dose: 150.0 mg/kg/injection, schedule: Q01DX001 (ip), vehicle: alkali diluted with saline 103 % of control | endpoint: mean survival time, dose: 448.0 mg/kg/injection, schedule: Q01DX001 (ip), vehicle: saline 119 % of control | endpoint: mean survival time, dose: 16.0 micrograms/kg/injection, schedule: Q01DX015 (ip), vehicle: alkali diluted with saline 100 % of control | endpoint: mean survival time, dose: 32.0 micrograms/kg/injection, schedule: Q01DX015 (ip), vehicle: alkali diluted with saline 107 % of control | endpoint: mean survival time, dose: 63.0 micrograms/kg/injection, schedule: Q01DX015 (ip), vehicle: alkali diluted with saline 107 % of control | endpoint: mean survival time, dose: 125.0 micrograms/kg/injection, schedule: Q01DX015 (ip), vehicle: alkali diluted with saline 116 % of control | endpoint: mean survival time, dose: 196.0 micrograms/kg/injection, schedule: Q01DX Z (ip), vehicle: carboxymethylcellulose (CMC) 122 % of control | endpoint: mean survival time, dose: 250.0 micrograms/kg/injection, schedule: Q01DX015 (ip), vehicle: alkali diluted with saline 103 % of control | endpoint: median survival time, dose: 16.0 mg/kg/injection, schedule: Q01DX009 (ip), vehicle: other 116 % of control

Source: PubChem BioAssay AID248 (DTP/NCI, 2004)
